From US20030049287A1, “Catechol oximes and their use in cosmetic and dermatological preparations” (priority 1999, published 2003)

Tests used:
[1] = DPPH test, activity as free-radical scavenger; type: biochemical; conditions: DPPH 100 μmol/l in methanol, absorption at 515 nm
Procedure: The activity of the illustrative compounds as in examples 7 to 13 as free-radical scavengers was compared with the conventional free-radical scavenger and two examples from WO 95 01,157. For this, the DPPH (1,1-diphenyl-2-picryl-hydrazyl) test was used to eliminate free radicals.
DPPH was dissolved in methanol to a concentration of 100 μmol/l. A series of dilutions of the illustrative compounds, vitamin C, α-tocopherol and dibutylhydroxytoluene were prepared in methanol. Methanol was used as the control. 2500 μl of the DPPH solution were mixed with 500 μl of each test solution, and the decrease in the absorption at 515 nm was read off until the decrease was less than 2% per hour. The activity of the test substances as free-radical scavengers was calculated according to the following equation:
Activity as free-radical scavenger (%)=100−(absorption of the test compounds)/(absorption of the control)×100.
The activity of the free-radical scavengers (%) in a series of dilutions of test compounds was used to calculate, for each test compound, the effective relative concentration EC50 (based on the initially present concentration of DPPH, EC=c (test compound)/c(DPPH)) of a test compound at which 50% of the DPPH free radical had been eliminated.

[2] = Rancimat accelerated autoxidation of lipids by air, squalene; conditions: antioxidative index = IP(with test solution)/IP(control sample), squalene purified over alumina, stabilized with 1 ppm α-tocopherol, 0.005% test substance
Procedure: (§1) The activity of the illustrative compounds according to Examples 7 to 13 as antioxidants was compared with the conventional antioxidants and two examples from WO 95 01,157. The test system used was the accelerated autoxidation of lipids by air with or without antioxidant using the Rancimat apparatus (Rancimat is a registered trademark of Metrohm AG, Herisau, Switzerland).
(§2) The illustrative compounds, vitamin C, α-tocopherol and dibutyihydroxytoluene were dissolved in methanol or acetone and 100 μl of each test solution were added to a prepared oil sample of 3 g. In a control sample only solvent was added. A constant stream of dry air (20 l/h) was bubbled through the heated oil sample containing the test solution, and the volatile oxidation products (predominantly short-chain fatty acids such as formic acid or acetic acid) were collected in a receiver containing water. The conductivity of this aqueous solution was measured continuously and documented. The oxidation of (unsaturated) fats proceeds here only very slowly for a period of time and then suddenly increases greatly. The time to the increase is referred to as the induction period (IP).
(§3) The antioxidative index (AOI) was obtained according to the following equation:
(§4) AOI=IP(with test solution)/IP(control sample).
The results for the experiment at 80° C. in squalene that was purified over alumina grade N and stabilized with 1 ppm of α-tocopherol are shown in table 4: […]

[3] = Rancimat accelerated autoxidation of lipids by air, soybean oil; conditions: antioxidative index = IP(with test solution)/IP(control sample), soybean oil purified over alumina, 0.05% test substance
Procedure: as §1, §2, §3, §4

Row | Structure (SMILES) | EC50 (effective relative concentration, c(test compound)/c(DPPH), at which 50% of the DPPH free radical had been eliminated) [1] | AOI in squalene at 80° C. with 0.005% of test substance [2] | AOI in soybean oil at 100° C. with 0.05% of test substance [3] | melting point
1 | Cc1cc(C(C)(C)C)c(O)c(C(C)(C)C)c1 [Dibutylhydroxytoluene, reference compound] | 0.240 mol/mol | 38 | 4.8 | 
2 | ON=Cc1ccc(O)c(O)c1 [Example 7, 3,4-Dihydroxybenzaldehyde oxime] | 0.053 mol/mol | 70 | 15.8 | 143 °C (dec.)
3 | CC(=NO)c1ccc(O)c(O)c1 [Example 8, 3,4-Dihydroxyacetophenone oxime] | 0.073 mol/mol | 95 | 16.6 | 
4 | ON=Cc1cc(O)c(O)c(O)c1 [Example 9, 3,4,5-Trihydroxybenzaldehyde oxime] | 0.090 mol/mol | 150 | 20.9 | 177 °C (dec.)
5 | CCON=Cc1ccc(O)c(O)c1 [Example 10, 3,4-Dihydroxybenzaldehyde O-ethyloxime] | 0.156 mol/mol | 85 | 17.3 | < 23 °C
6 | Cc1ccc(CON=Cc2ccc(O)c(O)c2)cc1 [Example 11, 3,4-Dihydroxybenzaldehyde O-(4-methylbenzyl)oxime] | 0.131 mol/mol | 50 | 14.1 | 85 to 86 °C
7 | CCON=C(C)c1ccc(O)c(O)c1 [Example 12, 3,4-Dihydroxyacetophenone O-ethyloxime] | 0.298 mol/mol | 65 | 15.2 | 
8 | CCON=Cc1cc(O)c(O)c(O)c1 [Example 13, 3,4,5-Trihydroxybenzaldehyde O-ethyloxime] | 0.132 mol/mol | 126 | 17.2 | 80 °C
9 | O=C1O[C@H]([C@@H](O)CO)C(O)=C1O [Vitamin C, reference compound] | 0.270 mol/mol | 0.7 | 1.2 | 
10 | CC(=NO)c1ccccc1O [o-Hydroxyacetophenone oxime, reference compound] | >3.0 mol/mol | 1.6 | 0.9 | 
11 | Cc1c(C)c2c(c(C)c1O)CC[C@@](C)(CCC[C@H](C)CCC[C@H](C)CCCC(C)C)O2 [α-Tocopherol, reference compound] | 0.250 mol/mol | 39 | 5.1 | 
